The supplement of paper PMC10307832

Key:
Assay in all cases: relative viability (nuclei count vs DMSO), 5 days (fraction); higher = more cells survive
[1] = compound: C1CSC2=C(C(=O)N1)SC3=C2C=C(C=C3)O [kb NB 142-70] + CS(=O)(=O)N1CCN(Cc2cc3nc(-c4cccc5[nH]ncc45)nc(N4CCOCC4)c3s2)CC1 [Pictilisib] (partner 1 µM)
In short: (§1)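 Relative viability equals treated-well nuclei counts divided by vehicle-well nuclei counts. Counts came from 4× images of lung cancer cell lines grown in 1536-well plates for 5 days after pin-tool dosing on the day after seeding. Dosing used one drug alone or a fixed anchor-drug dose plus five library-drug doses (not always all listed) in √10 steps, and values are medians of duplicate plates.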

[2] = compound: C1CSC2=C(C(=O)N1)SC3=C2C=C(C=C3)O [kb NB 142-70] + O=C(CCCCCCC(=O)Nc1ccccc1)NO [Vorinostat] (partner 1 µM)
In short: as §1

[3] = compound: NCC(=O)Nc1ccc(-n2nc(C(F)(F)F)cc2-c2ccc3c(ccc4ccccc43)c2)cc1 + CC(=O)Nc1cccc(-n2c(=O)n(C3CC3)c(=O)c3c(Nc4ccc(I)cc4F)n(C)c(=O)c(C)c32)c1 [Trametinib] (partner 0.02 µM)
In short: as §1

[4] = compound: NCC(=O)Nc1ccc(-n2nc(C(F)(F)F)cc2-c2ccc3c(ccc4ccccc43)c2)cc1 + NC(=O)Nc1cc(-c2cccc(F)c2)sc1C(=O)N[C@H]1CCCNC1 [AZD7762] (partner 0.2 µM)
In short: as §1

| Cell Line | relative viability ([1]; first compound 0.1 µM) | relative viability ([1]; first compound 1 µM) | relative viability ([1]; first compound 3.162 µM) | relative viability ([2]; first compound 0.1 µM) | relative viability ([2]; first compound 1 µM) | relative viability ([2]; first compound 3.162 µM) | relative viability ([3]; first compound 0.02 µM) | relative viability ([3]; first compound 0.06325 µM) | relative viability ([3]; first compound 0.2 µM) | relative viability ([3]; first compound 0.6325 µM) | relative viability ([3]; first compound 2 µM) | relative viability ([4]; first compound 0.02 µM) | relative viability ([4]; first compound 0.06325 µM) | relative viability ([4]; first compound 0.2 µM) | relative viability ([4]; first compound 0.6325 µM) | relative viability ([4]; first compound 2 µM) |
| --- | --- | --- | --- | --- | --- | --- | --- | --- | --- | --- | --- | --- | --- | --- | --- | --- |
| 201T | 0.683 | 0.649 | 0.698 | 0.943 | 1.02 | 1.06 | 0.692 | 0.717 | 0.747 | 0.725 | 0.696 | 0.599 | 0.657 | 0.625 | 0.656 | 0.601 |
| A549 | 0.474 | 0.498 | 0.114 |  |  |  |  |  |  |  |  |  |  |  |  |  |
| A-427 | 0.816 | 0.753 | 0.748 | 0.864 | 0.969 | 0.932 | 0.722 | 0.787 | 0.866 | 0.721 | 0.783 | 0.757 | 0.719 | 0.854 | 0.693 | 0.786 |
| ABC-1 | 0.757 | 0.879 | 0.381 | 1.13 | 0.975 | 0.453 |  |  |  |  |  | 0.811 | 0.899 |  | 0.758 | 0.866 |
| BEN | 0.561 | 0.527 | 0.405 | 0.553 | 0.585 | 0.573 | 0.861 | 1.15 | 1.05 | 0.938 | 1.11 | 0.627 | 0.76 | 0.789 | 0.798 | 0.628 |
| CAL-12T | 0.563 | 0.451 | 0.344 | 0.767 | 0.663 | 0.564 | 0.304 | 0.401 | 0.394 | 0.339 | 0.362 | 0.739 | 0.622 | 0.718 | 0.669 | 0.588 |
| COR-L23 | 0.765 | 0.807 | 0.251 | 0.515 | 0.428 | 0.214 | 0.593 | 0.637 | 0.568 | 0.549 | 0.491 |  |  |  |  |  |
| COR-L 105 | 0.376 | 0.392 | 0.37 | 0.812 | 0.831 | 0.776 | 0.456 | 0.482 | 0.491 | 0.416 | 0.432 |  |  |  |  |  |
| Calu-6 | 0.873 | 0.805 | 0.457 |  |  |  |  |  |  |  |  |  |  |  |  |  |
| ChaGo-K-1 | 0.894 | 0.807 | 0.523 | 0.815 | 0.813 | 0.7 | 0.832 | 0.903 | 0.882 | 0.83 | 0.842 | 0.81 | 0.869 | 0.807 | 0.913 | 0.897 |
| EBC-1 | 0.369 | 0.398 | 0.265 |  |  |  |  |  |  |  |  |  |  |  |  |  |
| EKVX | 0.413 | 0.465 | 0.438 | 0.677 | 0.481 | 0.814 | 0.408 | 0.356 | 0.428 | 0.366 | 0.369 | 0.748 | 0.823 | 0.651 | 0.607 | 0.738 |
| EMC-BAC-2 | 0.581 | 0.562 | 0.431 | 0.556 | 0.472 | 0.16 | 0.824 | 0.909 | 0.877 | 0.96 | 0.887 | 1.09 | 1.1 | 1.1 | 1.13 | 1.16 |
